These results are taken from patent US20070122422A1, “Sodium-independent small neutral amino acid transporter transporting L- and D- amino acids” (Japan Science and Technology Corporation, priority 2000, published 2007).

What all share (assay type): cell-based
Test [1] concerns the target T1, intracellular substrate-binding site of asc-1 of mouse (Mus musculus, UniProt P63115).
T1 construct: expressed in transfected cells; host or cells: Xenopus oocytes injected with cRNA
T1 sequence (P63115 1-530): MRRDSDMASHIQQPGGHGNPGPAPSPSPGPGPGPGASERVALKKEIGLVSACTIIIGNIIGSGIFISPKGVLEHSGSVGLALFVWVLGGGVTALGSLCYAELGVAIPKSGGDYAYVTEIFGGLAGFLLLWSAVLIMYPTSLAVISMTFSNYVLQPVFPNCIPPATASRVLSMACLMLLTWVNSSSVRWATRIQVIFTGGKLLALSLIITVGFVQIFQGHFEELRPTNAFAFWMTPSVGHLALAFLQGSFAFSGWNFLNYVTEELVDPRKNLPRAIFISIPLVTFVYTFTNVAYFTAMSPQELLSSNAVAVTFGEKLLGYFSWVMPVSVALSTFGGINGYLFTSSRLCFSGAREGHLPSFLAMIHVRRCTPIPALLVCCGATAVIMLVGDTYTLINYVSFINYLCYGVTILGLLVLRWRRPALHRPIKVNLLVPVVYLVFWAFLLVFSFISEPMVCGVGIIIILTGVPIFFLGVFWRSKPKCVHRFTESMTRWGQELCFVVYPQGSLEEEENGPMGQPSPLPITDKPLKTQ
T1 sequence (P10852 1-526 partner): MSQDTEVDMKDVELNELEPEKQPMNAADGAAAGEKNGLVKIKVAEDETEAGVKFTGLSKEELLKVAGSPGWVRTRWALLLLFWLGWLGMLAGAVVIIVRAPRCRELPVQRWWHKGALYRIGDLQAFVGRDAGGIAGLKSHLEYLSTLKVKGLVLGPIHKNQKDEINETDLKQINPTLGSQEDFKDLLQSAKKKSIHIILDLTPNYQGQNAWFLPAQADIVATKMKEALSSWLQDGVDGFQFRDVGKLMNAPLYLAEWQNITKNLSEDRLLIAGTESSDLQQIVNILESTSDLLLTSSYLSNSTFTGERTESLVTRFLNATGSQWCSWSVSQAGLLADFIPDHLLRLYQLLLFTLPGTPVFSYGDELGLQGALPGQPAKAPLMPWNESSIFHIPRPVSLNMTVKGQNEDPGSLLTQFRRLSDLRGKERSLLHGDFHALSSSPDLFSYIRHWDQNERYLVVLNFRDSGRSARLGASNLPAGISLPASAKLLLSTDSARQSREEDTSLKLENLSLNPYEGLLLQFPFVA
The experiment in a line: Release of injected 14C-amino acid from oocytes co-expressing asc-1 and 4F2hc on extracellular alanine. Conditions: alanine 100 μM added to Na+-free uptake solution. On the procedure: In oocytes into which cRNA of asc-1 gene and cRNA of 4F2hc gene of mouse were injected together, release of preloaded ^14C-amino acid mediated by asc-1 was checked whereby the substrate selectivity of intracellular substrate-binding site of asc-1 was checked.
^14C-Amino acid (˜3nCi) of 100 μM in an amount of 100 nl was injected into the oocytes into which both asc-1 gene cRNA and 4F2hc gene cRNA of mouse were injected together, washed with an ice-cooled Na^+-free uptake solution containing no alanine and transferred to a Na^+-free uptake solution to which alanine (100 μM) was added or not added at room temperature (18° C.-22° C.) and the amount of ^14C-amino acid released outside the cells was measured.
Black bars in FIG. 21 show the case where alanine was added to a Na^+-free uptake solution while bars with oblique lines show the case where alanine was not added to a Na^+-free uptake solution.

Test [2] concerns the target T2, asc-1 of mouse (co-expressed with 4F2hc of mouse) (Mus musculus, UniProt P63115).
T2 construct: expressed in transfected cells; host or cells: Xenopus oocytes injected with cRNA
T2 sequence (P63115 1-530): T1 sequence (P63115 1-530)
T2 sequence (P10852 1-526 partner): T1 sequence (P10852 1-526 partner)
The experiment in a line: Inhibition of 14C-alanine incorporation by added amino acids and analogs in oocytes co-expressing asc-1 and 4F2hc. To be noted: 14C-alanine 50 μM; 5 mM non-labeled compound; Na+-free uptake solution. On the procedure: Into oocytes were injected 12 ng of asc-1 gene cRNA of mouse, 13 ng of 4F2hc gene cRNA of mouse or 12 ng asc-1 gene cRNA of mouse/13 ng of 4F2hc gene cRNA of mouse to express followed by incubating for 3 days. […] Thus, the oocytes were allowed to stand for 30 minutes in a Na^+-free uptake solution [100 mM choline chloride, 2 mM potassium chloride, 1.8 mM calcium chloride, 1 mM magnesium chloride, 5 mM HEPES; pH 7.4] containing ^14C-alanine (100 μM) as a substrate and the rate of the substrate incorporated into the cells was measured by way of counting the radioactivity incorporated thereinto.
In an experiment of incorporation of alanine by oocytes into which both asc-1 gene cRNA of mouse and 4F2hc gene cRNA of mouse were injected, influence of addition of various amino acid and analogs thereof was investigated.
In an experiment of incorporation of alanine, a method according to that mentioned in the above Example 2(1) was carried out using oocytes into which both asc-1 gene cRNA of mouse and 4F2hc gene cRNA of mouse were injected. Here, a Na^+-free uptake solution was used and incorporation of ^14C-alanine (50 μM) was measured in the presence and absence of 5 mM of various compounds (non-labeled).

In test [3] the target is T2, asc-1 of mouse (co-expressed with 4F2hc of mouse). Put plainly: Incorporation of radiolabeled amino acids and analogs by oocytes co-expressing asc-1 and 4F2hc. Conditions: for incorporation into the oocytes as substrate: radiolabeled substrate, oocytes expressing both asc-1 and 4F2hc, Na+-free uptake solution; for transport by asc-1 (affinity in words): summary statement, asc-1 co-existing with 4F2hc. Put shortly: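 Xenopus oocytes injected with mouse asc-1 (12 ng) and 4F2hc (13 ng) cRNA, cultured 3 days. Uptake over 30 minutes in Na+-free buffer, pH 7.4, with 100 μM ^14C-alanine or other radiolabeled amino acids/analogs, measured by counting incorporated radioactivity; Na+, Cl− and pH effects tested via substituted solutions.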

Turning to `C[C@H](N)C(=O)O` [L-Alanine], the “release of injected 14C-labeled amino acid by extracellular alanine” value in test [1] is on record as “increase in release”. For the same compound, the “inhibition of incorporation of 14C-alanine mediated by asc-1” value in test [2] is on record as “particularly strongly inhibited”. Moreover, in test [3], the “influence of pH on incorporation of alanine” value is “no significant dependency on pH”, the “incorporation into the oocytes as substrate” value is “big incorporation” and the “transport by asc-1 (affinity in words)” value was “highly affinitive”. In addition, the “influence of salt on incorporation of alanine” value in test [3] (choline changed to sodium, chlorine ion changed to gluconic acid ion) is on record as “does no affect”.

On to `N[C@@H](CO)C(=O)O` [L-Serine], for which the “release of injected 14C-labeled amino acid by extracellular alanine” value in test [1] was “increase in release”. The “inhibition of incorporation of 14C-alanine mediated by asc-1” value in test [2] is on record as “particularly strongly inhibited”. In test [3], the “incorporation into the oocytes as substrate” value was “big incorporation” and the “transport by asc-1 (affinity in words)” value is “highly affinitive”.
